Assay results published in US10428083B2, “Heterocyclylmethyl-thienouracile as antagonists of the adenosine-A2B-receptor” (BAYER PHARMA AKTIENGESELLSCHAFT, priority 2015, dated 2019).

Biological target: human adenosine A2b receptor (Homo sapiens (Human), UniProt P29275)
Experiment: Cellular in vitro reporter gene test for A2b receptor activity (CHO-K1, CRE-luciferase, NECA stimulation)
Type: cell-based
Settings: recombinant CHO-K1 cell line, CRE-luciferase reporter, antagonism of EC50 concentration of NECA; in some cases means of several determinations, rounded to two significant figures; read-out: A2b receptor IC50
Method in brief: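 CHO-K1 cells with CRE-driven luciferase; antagonists co-incubated with NECA at its EC50, determined in a pre-experiment on each test day. Luciferase read by luminescence 3 h after NECA addition.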

human adenosine A2b receptor, sequence (P29275 whole entry): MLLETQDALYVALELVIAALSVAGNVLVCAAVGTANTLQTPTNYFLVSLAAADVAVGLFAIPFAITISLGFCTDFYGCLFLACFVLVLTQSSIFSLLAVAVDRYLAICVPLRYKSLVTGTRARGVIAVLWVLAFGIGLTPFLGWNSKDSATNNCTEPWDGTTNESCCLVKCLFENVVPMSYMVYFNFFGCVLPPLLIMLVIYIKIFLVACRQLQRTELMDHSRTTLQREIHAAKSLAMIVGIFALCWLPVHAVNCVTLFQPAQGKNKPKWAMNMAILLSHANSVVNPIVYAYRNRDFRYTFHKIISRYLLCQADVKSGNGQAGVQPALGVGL

IC50 [nM] | Structure (SMILES)
130 | CCn1c(=O)c2c(C)c(Cn3nc[nH]c3=O)sc2n(CC2CCCO2)c1=O (racemic) [Example 419, 3-Ethyl-5-methyl-6-[(5-oxo-4,5-dihydro-1H-1,2,4-triazol-1-yl)methyl]-1-(tetrahydrofuran-2-ylmethyl)thieno[2,3-d]pyrimidine-2,4(1H,3H)-dione]
10 | Cc1c(CN2CCNC(=O)C2=O)sc2c1c(=O)n(CC(C)(C)C)c(=O)n2CCC(F)(F)F [Example 272, 3-(2,2-Dimethylpropyl)-6-[(2,3-dioxopiperazin-1-yl)methyl]-5-methyl-1-(3,3,3-trifluoropropyl)thieno[2,3-d]pyrimidine-2,4(1H,3H)-dione]
36 | CCSCCn1c(=O)n(CC)c(=O)c2c(C)c(CN3CCNC3=O)sc21 [Example 309, 3-Ethyl-1-[2-(ethylsulphanyl)ethyl]-5-methyl-6-[(2-oxoimidazolidin-1-yl)methyl]thieno[2,3-d]pyrimidine-2,4(1H,3H)-dione]
10 | [2H]C([2H])(c1sc2c(c1C)c(=O)n(CC(F)(F)F)c(=O)n2CCOC)N1CCNC1=O [Example 500, 1-(2-Methoxyethyl)-5-methyl-6-[(2-oxoimidazolidin-1-yl)(dideutero)methyl]-3-(2,2,2-trifluoroethyl)thieno[2,3-d]pyrimidine-2,4(1H,3H)-dione]
39 | CCn1c(=O)c2c(C)c(Cn3nc[nH]c3=O)sc2n(CCOC)c1=O [Example 114, 3-Ethyl-1-(2-methoxyethyl)-5-methyl-6-[(5-oxo-4,5-dihydro-1H-1,2,4-triazol-1-yl)methyl]thieno[2,3-d]pyrimidine-2,4(1H,3H)-dione]
9.8 | CCn1c(=O)c2c(C)c(CN3CCNC3=NC#N)sc2n(CC2CCCO2)c1=O (racemic) [Example 259, [1-{[3-Ethyl-5-methyl-2,4-dioxo-1-(tetrahydrofuran-2-ylmethyl)-1,2,3,4-tetrahydrothieno[2,3-d]pyrimidin-6-yl]methyl}imidazolidin-2-ylidene]cyanamide]
28 | Cc1c(Cn2cc[nH]c2=O)sc2c1c(=O)n(CC(C)(C)C)c(=O)n2CC1CCCO1 (racemic) [Example 507, 3-(2,2-Dimethylpropyl)-5-methyl-6-[(2-oxo-2,3-dihydro-1H-imidazol-1-yl)methyl]-1-(tetrahydrofuran-2-ylmethyl)thieno[2,3-d]pyrimidine-2,4(1H,3H)-dione]
13 | COC(C)(C)Cn1c(=O)c2c(C)c(CN3CCNC3=S)sc2n(CCCF)c1=O [Example 171, 1-(3-Fluoropropyl)-3-(2-methoxy-2-methylpropyl)-5-methyl-6-[(2-thioxoimidazolidin-1-yl)methyl]thieno[2,3-d]pyrimidine-2,4(1H,3H)-dione]
3.2 | Cc1c(CN2CCNC2=O)sc2c1c(=O)n(CC(C)C)c(=O)n2CCCF [Example 192, 1-(3-Fluoropropyl)-3-isobutyl-5-methyl-6-[(2-oxoimidazolidin-1-yl)methyl]thieno[2,3-d]pyrimidine-2,4(1H,3H)-dione]
12 | CCn1c(=O)c2c(C)c(CN3CCNC3=S)sc2n(CCOC2CC2)c1=O [Example 138, 1-[2-(Cyclopropyloxy)ethyl]-3-ethyl-5-methyl-6-[(2-thioxoimidazolidin-1-yl)methyl]thieno[2,3-d]pyrimidine-2,4(1H,3H)-dione]
14 | CCn1c(=O)c2c(C)c(CN3CCNC3=O)sc2n(CC(F)(F)F)c1=O [Example 47, 3-Ethyl-5-methyl-6-[(2-oxoimidazolidin-1-yl)methyl]-1-(2,2,2-trifluoroethyl)thieno[2,3-d]pyrimidine-2,4(1H,3H)-dione]
12 | CCn1c(=O)c2c(C(F)F)c(CN3CCNC3=S)sc2n(CCOC)c1=O [Example 45, 5-(Difluoromethyl)-3-ethyl-1-(2-methoxyethyl)-6-[(2-thioxoimidazolidin-1-yl)methyl]thieno[2,3-d]pyrimidine-2,4(1H,3H)-dione]
